Reference: US20250009844A1, “MATURATION OF MUCOSAL DEFENSE AND GUT/LUNG FUNCTION IN THE PRETERM INFANT” (Novozymes A/S, priority 2017, published 2025)
Entries after “also recorded” stand apart in the source; their conditions may differ. No end group written: not given here.

Assays:
[1] = Therapeutic high fat diet model in diet-induced obese mice, weight and fat percentage (Example 2); format: in vivo; conditions: HFD plus hBD-2 vs standard HFD
From the text: The overall design of the study is shown in FIG. 1, lower panel, “Therapeutic study”. Mice and diets. The experiment elucidates the effect of hBD-2 and HD5 on the microbiota in diet-induced obese mice. A run-in period of 13 weeks where mice were fed a very HFD (60% energy from fat) preceded the intervention. Only mice meeting the criteria of a minimum of 12 gram weight gain (approximately 50% of initial bodyweight) during the run-in period were included in the final analyses. […] They were exposed to all experimental tests, but excluded from the analyses.
Treatment regimen. Before the intervention all mice were MR scanned. Cages of mice were allocated to experimental groups based on their fat mass. All subsequent measures were paired with data from the same mouse before the intervention. A LFD (low fat diet) reference group was running in parallel. As controls for the intervention 2 additional groups were included: a) very HFD and b) LFD. Experimental mice stayed on the very HFD during the intervention. The mice were on the experimental diet for 10 weeks. They were co-housed throughout the experiment, 4 mice per cage, 3 cages per group. All tests ran over 3 days, 1 cage per group per day.

[2] = system: bacteria localization at the surface of the intestinal mucosa; test: Localization of bacteria by FISH with mucin immunostaining, lysis zone (Example 14); format: in vivo; conditions: orally administered; compared with mice on a low fat or western diet
Method: Immunostaining of mucins and localization of bacteria by FISH Mucus immunostaining was paired with fluorescent in situ hybridization (FISH), as previously described in order to analyze bacteria localization at the surface of the intestinal mucosa. Briefly, colonic tissues (proximal colon, 2nd cm from the cecum) without fecal material were placed in methanol-Carnoy's fixative solution (60% methanol, 30% chloroform, 10% glacial acetic acid) for a minimum of 3 hours at room temperature. Tissues were then washed in methanol 2×30 min, ethanol 2×15 min, ethanol/xylene (1:1), 15 min and xylene 2×15 min, followed by embedding in Paraffin with a vertical orientation. Five μm sections were performed and dewax by preheating at 60° C. for 10 min, followed by xylene 60° C. for 10 min, xylene for 10 min and 99.5% ethanol for 10 minutes. Hybridization step was performed at 50° C. overnight with EUB338 probe (5′-GCTGCCTCCCGTAGGAGT-3′, with a 5′ labeling using Alexa 647) diluted to a final concentration of 10 μg/mL in hybridization buffer (20 mM Tris-HCl, pH 7.4, 0.9 M NaCl, 0.1% SDS, 20% formamide). After washing 10 min in wash buffer (20 mM Tris-HCl, pH 7.4, 0.9 M NaCl) and 3×10 min in PBS, PAP pen (Sigma-Aldrich) was used to mark around the section and block solution (5% fetal bovine serum in PBS) was added for 30 min at 4° C. […]

[3] = system: BALB/c mice; test: Therapeutic intervention in murine house dust mite/Freund's complete adjuvant driven model of allergic asthma (Example 6); format: in vivo; conditions: for Increase of airway resistance (AHR): vs HDM challenged vehicle
Method: Treatment regime: Female 7-10 weeks old BALB/c mice were randomly allocated into 6 study groups one day prior to study start and subcutaneously (SC) sensitized to house dust mite (100 μg HDM in 200 μL saline plus Freund's complete adjuvant in 0.9% saline). Mice were then intranasally (IN) challenged with HDM on day 14 (HDM 25 μg in 50 μL of saline). Dexamethasone was administered orally (1 mg/kg BID; 50 μL phosphate buffered saline (PBS)) on day 14. hBD-2 was administered IN or orally (1.7 mg/kg TID IN; 0.4 mg/kg TID IN; 0.4 mg/kg TID orally, 50 μL phosphate buffered saline) on day 14. The initial dose was administered 60 minutes prior to challenge, and the subsequent two doses approximately 6 hours apart (FIG. 3).
Airway inflammation: At 48 hours post challenge, bronchoalveolar lavage was performed washing the lungs with 3 volumes of cold PBS (0.4; 0.3 and 0.3 mL, total 1 mL). Total and differential leucocyte cell counts were determined on an automated haematological analyser Sysmex XT-2000iV.
Data are represented as airway resistance at […] methacholine and as dose responsive curves. Lung sampling for cytokine analysis: After completion of every BAL, lungs were removed from the thorax, snap frozen in liquid nitrogen and stored frozen at −80 degrees Celsius until analysis of cytokine concentration of IL-1β, TNF-α, IL-6, IL-10 and IFNγ by ELISA.

[4] = system: PBMC cells; test: PBMC cell viability, Alamar Blue, 24 hours (Example 8); format: cell-based, human; conditions: 1, 10 and 40 μg/ml, 0.6 and 20.0 pg/ml LPS
Method: FIG. 39. Cell viability of PBMC cells following exposure for 24 hours to Alamar Blue and HD5, hBD-1, hBD-2, hBD-3 and hBD-4 at concentrations of 1, 10 and 40 μg/ml.
PBMC cell viability following exposure for 24 hours to Alamar Blue and HD5,hBD-1, hBD-2, hBD-3 and hBD-4 at concentrations of 1, 10 and 40 μg/ml at 0.6 and 20.0 pg/ml LPS respectively (FIG. 39).

[5] = hBD-2 intranasal, both doses, dexamethasone 1 mg/kg BID orally

Substance: human beta defensin 2 (GIGDPVTCLKSGAICHPVFCPRRYKQIGTCGLPGTKCCKKP; ends and bridges not checked; cysteine pairing not given here; listed as Homo sapiens) [hBD-2]
- Weight gain ([1]; first 4 weeks post dietary intervention, p=0.07): tended to gain less weight the first 4 weeks post dietary intervention, although not significant
- Weight gain ([1]; from week 4 to the end of the study period, p=0.82): gained similar weight as the standard HFD group
- Distance from the intestinal lining to bacterial population (lysis zone) [2]: profound effect on the distance
- Total cell count in BALF ([3]; 48 hours post challenge, hBD-2 intranasal, both doses (0.4 mg/kg/day TID and 1.7 mg/kg/day TID), dexamethasone 1 mg/kg BID orally): significantly inhibited total, neutrophil and macrophage cell counts
- Eosinophil count in BALF [3, 5]: trend towards lowering of eosinophils
- Macrophage count in BALF [3, 5]: significantly inhibited total, neutrophil and macrophage cell counts
- Neutrophil count in BALF [3, 5]: significantly inhibited total, neutrophil and macrophage cell counts
- TNF-α level in lung tissue homogenate ([3]; intranasal hBD-2): not significantly different from the control
- Decrease of pulmonary compliance ([3]; intranasal hBD-2 TID on day 14): effectively inhibited
- Increase of airway resistance (AHR) ([3]; intranasal hBD-2 TID on day 14): effectively inhibited increase of airway resistance
- Decrease of pulmonary compliance ([3]; oral hBD-2 0.4 mg/kg TID on day 14): effectively inhibited
- Increase of airway resistance (AHR) ([3]; oral on day 14: hBD-2 0.4 mg/kg TID, dexamethasone 1 mg/kg BID): effectively inhibited increase of airway resistance
- TNF-α level in lung tissue homogenate ([3]; oral: hBD-2 0.4 mg/kg TID, dexamethasone 1 mg/kg BID, vs HDM/vehicle control): significantly reduced TNF-α
- Toxicity (PBMC cell viability) [4]: not toxic irrespectively of concentration; also recorded: not to be toxic
